Article PMC5218480 (PLoS ONE, 2017)

Test system: MV-4-11 cells
Test: Gene expression microarray analysis (Affymetrix PrimeView) and GSEA
Assay type: cell-based, human
Set-up: RFU PODN (11730768_x_at) / Fold change /veh PODN (11730768_x_at) / RFU LINC00158 (11744669_a_at) / Fold change /veh LINC00158 (11744669_a_at) / RFU DUSP10 (11751237_a_at) / Fold change /veh DUSP10 (11751237_a_at) / RFU ID3 (11757404_x_at) / Fold change /veh ID3 (11757404_x_at) / RFU PLEKHG5 (11737974_s_at) / Fold change /veh PLEKHG5 (11737974_s_at) / RFU LRRC4B (11730491_at) / Fold change /veh LRRC4B (11730491_at) / RFU GIMAP4 (11747438_a_at) / Fold change /veh GIMAP4 (11747438_a_at) / RFU KRT8 (11758183_x_at) / Fold change /veh KRT8 (11758183_x_at) / RFU CNN1 (11734310_a_at) / Fold change /veh CNN1 (11734310_a_at) / RFU VPS37D (11726825_at) / Fold change /veh VPS37D (11726825_at) / RFU C10orf10 (11716522_x_at) / Fold change /veh C10orf10 (11716522_x_at) / RFU KIR2DL2 /// KIR2DL4 /// KIR2DL5A /// KIR2DL5B /// KIR2DS1 /// KIR2DS2 /// KIR2DS3 /// KIR2DS4 /// KIR3DL3 /// KIR3DL3 /// KIR3DS1 (11738374_at) / Fold change /veh KIR2DL2 /// KIR2DL4 /// KIR2DL5A /// KIR2DL5B /// KIR2DS1 /// KIR2DS2 /// KIR2DS3 /// KIR2DS4 /// KIR3DL3 /// KIR3DL3 /// KIR3DS1 (11738374_at) / RFU C1QL1 (11718748_at) / Fold change /veh C1QL1 (11718748_at) / RFU TMPRSS4 (11747572_a_at) / Fold change /veh TMPRSS4 (11747572_a_at) / RFU HAMP (11756126_x_at) / Fold change /veh HAMP (11756126_x_at) / RFU RNFT2 (11725882_a_at) / Fold change /veh RNFT2 (11725882_a_at) / RFU NR4A2 (11747474_a_at) / Fold change /veh NR4A2 (11747474_a_at) / RFU ABCC12 (11746883_a_at) / Fold change /veh ABCC12 (11746883_a_at) / RFU TMEM136 (11760407_x_at) / Fold change /veh TMEM136 (11760407_x_at) / RFU CLDN22 /// WWC2 (11732394_at) / Fold change /veh CLDN22 /// WWC2 (11732394_at) / RFU HLA-DPB1 (11760878_x_at) / Fold change /veh HLA-DPB1 (11760878_x_at) / RFU SPINT1 (11716480_a_at) / Fold change /veh SPINT1 (11716480_a_at) / RFU GAP43 (11754022_s_at) / Fold change /veh GAP43 (11754022_s_at) / RFU A4GNT (11735810_at) / Fold change /veh A4GNT (11735810_at) / RFU PRB3 (11715151_x_at) / Fold change /veh PRB3 (11715151_x_at) / RFU TUBB4B (11761932_at) / Fold change /veh TUBB4B (11761932_at) / RFU CAPN14 (11732068_a_at) / Fold change /veh CAPN14 (11732068_a_at) / RFU TMCC2 (11721928_a_at) / Fold change /veh TMCC2 (11721928_a_at) / RFU IRGQ (11745062_a_at) / Fold change /veh IRGQ (11745062_a_at) / RFU FAM174B (11720279_a_at) / Fold change /veh FAM174B (11720279_a_at) / RFU TMPRSS4 (11748680_a_at) / Fold change /veh TMPRSS4 (11748680_a_at) / RFU FAM212B (11763350_a_at) / Fold change /veh FAM212B (11763350_a_at) / RFU PLEKHG5 (11743358_a_at) / Fold change /veh PLEKHG5 (11743358_a_at) / RFU ZSCAN30 (11745921_a_at) / Fold change /veh ZSCAN30 (11745921_a_at) / RFU CMKLR1 (11741424_a_at) / Fold change /veh CMKLR1 (11741424_a_at) / RFU LOC101060620 /// MAPK8IP1 (11723275_at) / Fold change /veh LOC101060620 /// MAPK8IP1 (11723275_at) / RFU SPTSSB (11747773_x_at) / Fold change /veh SPTSSB (11747773_x_at) / RFU PRSS12 (11739890_at) / Fold change /veh PRSS12 (11739890_at) / RFU BIN1 (11741810_x_at) / Fold change /veh BIN1 (11741810_x_at) / RFU WNT11 (11732464_a_at) / Fold change /veh WNT11 (11732464_a_at) / RFU C10orf10 (11716521_a_at) / Fold change /veh C10orf10 (11716521_a_at) / RFU C5orf56 (11738089_at) / Fold change /veh C5orf56 (11738089_at) / RFU CYB561 (11721691_x_at) / Fold change /veh CYB561 (11721691_x_at) / RFU ANKRD19P (11752326_a_at) / Fold change /veh ANKRD19P (11752326_a_at) / RFU OR2T12 /// OR2T33 /// OR2T8 (11738714_s_at) / Fold change /veh OR2T12 /// OR2T33 /// OR2T8 (11738714_s_at) / RFU VCAN (11748164_a_at) / Fold change /veh VCAN (11748164_a_at) / RFU JSRP1 (11732532_at) / Fold change /veh JSRP1 (11732532_at) / RFU KRTAP10-11 (11738290_x_at) / Fold change /veh KRTAP10-11 (11738290_x_at) / RFU MYO3A (11730013_a_at) / Fold change /veh MYO3A (11730013_a_at) / RFU EBF3 (11725865_a_at) / Fold change /veh EBF3 (11725865_a_at) / RFU CAMK2N1 (11719241_x_at) / Fold change /veh CAMK2N1 (11719241_x_at) / RFU C5orf56 (11738088_a_at) / Fold change /veh C5orf56 (11738088_a_at) / RFU OLFML3 (11715873_a_at) / Fold change /veh OLFML3 (11715873_a_at) / RFU LOC100653217 /// NTM (11731650_a_at) / Fold change /veh LOC100653217 /// NTM (11731650_a_at) / RFU MAPK11 (11762145_a_at) / Fold change /veh MAPK11 (11762145_a_at) / RFU FIZ1 (11724087_x_at) / Fold change /veh FIZ1 (11724087_x_at) / RFU OASL (11726364_x_at) / Fold change /veh OASL (11726364_x_at) / RFU SOX15 (11748057_x_at) / Fold change /veh SOX15 (11748057_x_at) / RFU CD79A (11719716_a_at) / Fold change /veh CD79A (11719716_a_at) / RFU HIST1H1D (11736915_at) / Fold change /veh HIST1H1D (11736915_at) / RFU CASKIN2 (11723855_a_at) / Fold change /veh CASKIN2 (11723855_a_at) / RFU LOC730098 (11760151_x_at) / Fold change /veh LOC730098 (11760151_x_at) / RFU OR4N2 (11742367_at) / Fold change /veh OR4N2 (11742367_at) / RFU PRRT2 (11749266_a_at) / Fold change /veh PRRT2 (11749266_a_at) / RFU SNX32 (11753110_a_at) / Fold change /veh SNX32 (11753110_a_at) / RFU CDHR5 (11726645_a_at) / Fold change /veh CDHR5 (11726645_a_at) / RFU RCAN1 (11760418_a_at) / Fold change /veh RCAN1 (11760418_a_at) / RFU FAM167A (11723789_a_at) / Fold change /veh FAM167A (11723789_a_at) / RFU FAM26E (11764081_at) / Fold change /veh FAM26E (11764081_at) / RFU ISYNA1 (11749810_s_at) / Fold change /veh ISYNA1 (11749810_s_at) / RFU ACY1 (11761880_at) / Fold change /veh ACY1 (11761880_at) / RFU 11764098_at / Fold change /veh 11764098_at / RFU SAMD14 (11745864_x_at) / Fold change /veh SAMD14 (11745864_x_at) / RFU NPB (11741838_a_at) / Fold change /veh NPB (11741838_a_at) / RFU TMPRSS6 (11731388_a_at) / Fold change /veh TMPRSS6 (11731388_a_at) / RFU KRTAP10-2 (11738614_at) / Fold change /veh KRTAP10-2 (11738614_at) / RFU ARHGAP8 /// PRR5-ARHGAP8 (11727945_x_at) / Fold change /veh ARHGAP8 /// PRR5-ARHGAP8 (11727945_x_at) / RFU KRTAP5-7 /// NADSYN1 (11734609_at) / Fold change /veh KRTAP5-7 /// NADSYN1 (11734609_at) / RFU RASL12 (11751679_a_at) / Fold change /veh RASL12 (11751679_a_at) / RFU CDKN2B (11736163_a_at) / Fold change /veh CDKN2B (11736163_a_at) / RFU PRF1 (11729649_at) / Fold change /veh PRF1 (11729649_at) / RFU, ZNF638 /// ZNF638-IT1 / Fold change vs veh, ZNF638 /// ZNF638-IT1 / RFU, PANK3 / Fold change vs veh, PANK3 / RFU, SH3YL1 / Fold change vs veh, SH3YL1 / RFU, ZEB2 / Fold change vs veh, ZEB2 / RFU, NRIP1 / Fold change vs veh, NRIP1 / RFU, PTTG1IP / Fold change vs veh, PTTG1IP / RFU, CAPN2 / Fold change vs veh, CAPN2 / RFU, MED14 / Fold change vs veh, MED14 / RFU, SNORA58 / Fold change vs veh, SNORA58 / RFU, C1orf63 / Fold change vs veh, C1orf63 / RFU, LRRFIP1 / Fold change vs veh, LRRFIP1 / RFU, NDUFAF7 / Fold change vs veh, NDUFAF7 / RFU, SLC12A2 / Fold change vs veh, SLC12A2 / RFU, IBTK / Fold change vs veh, IBTK / RFU, ESF1 / Fold change vs veh, ESF1 / Fold change vs veh, TMEM50B / RFU, TAOK1 / Fold change vs veh, TAOK1 / RFU, ACBD3 / Fold change vs veh, ACBD3 / RFU, TMA16 / Fold change vs veh, TMA16 / RFU, RWDD3 / Fold change vs veh, RWDD3 / RFU, BCAT1 / Fold change vs veh, BCAT1 / RFU, EDEM3 / Fold change vs veh, EDEM3 / RFU, TMEM33 / Fold change vs veh, TMEM33 / RFU, WDR75 / Fold change vs veh, WDR75 / RFU, AHCTF1 / Fold change vs veh, AHCTF1 / RFU, TFRC / Fold change vs veh, TFRC / RFU, ZDHHC17 / Fold change vs veh, ZDHHC17 / RFU, NOM1 / Fold change vs veh, NOM1 / RFU, ARL8B / Fold change vs veh, ARL8B / RFU, ZBTB11 / Fold change vs veh, ZBTB11 / RFU, TAMM41 / Fold change vs veh, TAMM41 / RFU, KIAA1704 /// LOC100996395 / Fold change vs veh, KIAA1704 /// LOC100996395 / RFU, ING1 / Fold change vs veh, ING1 / RFU, TRMT61B / Fold change vs veh, TRMT61B / RFU, FUBP3 / Fold change vs veh, FUBP3 / RFU, TP53 / Fold change vs veh, TP53 / RFU, TNKS2 / Fold change vs veh, TNKS2 / RFU, ZFP14 / Fold change vs veh, ZFP14 / RFU, ACTR2 / Fold change vs veh, ACTR2 / RFU, PPP3R1 / Fold change vs veh, PPP3R1 / RFU, PIK3R1 / Fold change vs veh, PIK3R1 / RFU, HNRNPA1 / Fold change vs veh, HNRNPA1 / RFU, RNF170 / Fold change vs veh, RNF170 / RFU, ZNF28 / Fold change vs veh, ZNF28 / RFU, RNGTT / Fold change vs veh, RNGTT / RFU, OGT / Fold change vs veh, OGT / RFU, BRD1 / Fold change vs veh, BRD1 / RFU, MARS / Fold change vs veh, MARS / RFU, ZNF655 / Fold change vs veh, ZNF655 / RFU, FAHD1 / Fold change vs veh, FAHD1 / RFU, BDP1 / Fold change vs veh, BDP1 / RFU, LRRCC1 / Fold change vs veh, LRRCC1 / RFU, ARID1A / Fold change vs veh, ARID1A / RFU, ZNF146 / Fold change vs veh, ZNF146 / RFU, ZNF330 / Fold change vs veh, ZNF330 / RFU, GPN3 / Fold change vs veh, GPN3 / RFU, C9orf123 / Fold change vs veh, C9orf123 / RFU, N4BP2L2 / Fold change vs veh, N4BP2L2 / RFU, ARFIP1 / Fold change vs veh, ARFIP1 / RFU, FAM179B / Fold change vs veh, FAM179B / RFU, BCL10 / Fold change vs veh, BCL10 / RFU, UHRF1BP1L / Fold change vs veh, UHRF1BP1L / RFU, BET1 / Fold change vs veh, BET1 / RFU, CNOT2 / Fold change vs veh, CNOT2 / RFU, ZNF268 / Fold change vs veh, ZNF268 / Fold change vs veh, ZNF507 / RFU, DGCR2 / Fold change vs veh, DGCR2 / RFU, WDSUB1 / Fold change vs veh, WDSUB1 / Fold change vs veh, HSP90B1 /// MIR3652 / RFU, ADSS / Fold change vs veh, ADSS / RFU, GK / Fold change vs veh, GK / RFU, ZNF148 / Fold change vs veh, ZNF148 / RFU, TAF9 / Fold change vs veh, TAF9 / RFU, SLC1A5 / Fold change vs veh, SLC1A5 / RFU, SLMO2 / Fold change vs veh, SLMO2 / RFU, ABCC4 / Fold change vs veh, ABCC4 / RFU, LOC101060439 /// RAP1B / Fold change vs veh, LOC101060439 /// RAP1B / RFU, RFX7 / Fold change vs veh, RFX7 / RFU, GTPBP10 / Fold change vs veh, GTPBP10 / RFU, CNEP1R1 / Fold change vs veh, CNEP1R1 / RFU, BIVM-ERCC5 /// ERCC5 / Fold change vs veh, BIVM-ERCC5 /// ERCC5 / RFU, ILF3 / Fold change vs veh, ILF3 / RFU 11762660_at / Fold change /veh 11762660_at / RFU VCAN (11757783_s_at) / Fold change /veh VCAN (11757783_s_at) / RFU DDX43 (11728927_at) / Fold change /veh DDX43 (11728927_at) / RFU KRT8 (11758188_x_at) / Fold change /veh KRT8 (11758188_x_at) / RFU NKD1 (11759106_at) / Fold change /veh NKD1 (11759106_at) / RFU SRD5A1 (11742802_a_at) / Fold change /veh SRD5A1 (11742802_a_at) / RFU TPSAB1 /// TPSB2 (11721975_s_at) / Fold change /veh TPSAB1 /// TPSB2 (11721975_s_at) / RFU GSTM3 (11746129_a_at) / Fold change /veh GSTM3 (11746129_a_at) / RFU IL23R (11737362_x_at) / Fold change /veh IL23R (11737362_x_at) / RFU TMEM51 (11727254_a_at) / Fold change /veh TMEM51 (11727254_a_at) / RFU PIWIL2 (11732686_x_at) / Fold change /veh PIWIL2 (11732686_x_at) / RFU ORM1 (11744905_x_at) / Fold change /veh ORM1 (11744905_x_at) / RFU CCDC152 (11743942_at) / Fold change /veh CCDC152 (11743942_at) / RFU ECM1 (11717891_a_at) / Fold change /veh ECM1 (11717891_a_at) / RFU IL23R (11748794_a_at) / Fold change /veh IL23R (11748794_a_at) / RFU TNFAIP8L3 (11732012_x_at) / Fold change /veh TNFAIP8L3 (11732012_x_at) / RFU MBOAT4 (11741988_at) / Fold change /veh MBOAT4 (11741988_at) / RFU 11764193_at / Fold change /veh 11764193_at / RFU TMEM53 (11763286_at) / Fold change /veh TMEM53 (11763286_at) / RFU MAGEB2 (11727129_at) / Fold change /veh MAGEB2 (11727129_at) / RFU TMEM200A (11744735_a_at) / Fold change /veh TMEM200A (11744735_a_at) / RFU CCDC152 (11751479_a_at) / Fold change /veh CCDC152 (11751479_a_at) / RFU FAM211A (11726209_a_at) / Fold change /veh FAM211A (11726209_a_at) / RFU RGS16 (11746705_a_at) / Fold change /veh RGS16 (11746705_a_at) / RFU VCAN (11755009_s_at) / Fold change /veh VCAN (11755009_s_at) / RFU RHOB (11743442_s_at) / Fold change /veh RHOB (11743442_s_at) / RFU RGS16 (11720943_a_at) / Fold change /veh RGS16 (11720943_a_at) / RFU RGS16 (11720944_at) / Fold change /veh RGS16 (11720944_at) / RFU, VPS4B / Fold change vs veh, VPS4B / RFU, CREB1 / Fold change vs veh, CREB1 / RFU, DNAJC13 / Fold change vs veh, DNAJC13 / RFU, GNAQ / Fold change vs veh, GNAQ / RFU, CDK5R1 / Fold change vs veh, CDK5R1 / RFU, ZRANB3 / Fold change vs veh, ZRANB3 / RFU, CUL4A / Fold change vs veh, CUL4A / RFU, CCNY / Fold change vs veh, CCNY / RFU, UFL1 / Fold change vs veh, UFL1 / RFU, COG3 / Fold change vs veh, COG3 / RFU, DIAPH2 / Fold change vs veh, DIAPH2 / RFU, SKA2 / Fold change vs veh, SKA2 / RFU, AFF3 / Fold change vs veh, AFF3 / RFU, LMF1 / Fold change vs veh, LMF1 / RFU, IPO11 / Fold change vs veh, IPO11 / RFU, DFFB / Fold change vs veh, DFFB / RFU, FOXP1 / Fold change vs veh, FOXP1 / RFU, CARD8 / Fold change vs veh, CARD8 / RFU, STRN3 / Fold change vs veh, STRN3 / RFU, ADK / Fold change vs veh, ADK / RFU, RASSF2 / Fold change vs veh, RASSF2 / RFU, WIPF1 / Fold change vs veh, WIPF1 / RFU, LARP1B / Fold change vs veh, LARP1B / RFU, RASA1 / Fold change vs veh, RASA1 / RFU, RB1 / Fold change vs veh, RB1 / RFU, PPFIA1 / Fold change vs veh, PPFIA1 / RFU, MAT2A / Fold change vs veh, MAT2A / RFU, CCT5 / Fold change vs veh, CCT5 / RFU, WDR92 / Fold change vs veh, WDR92 / RFU, CUX1 / Fold change vs veh, CUX1 / RFU, TTC7A / Fold change vs veh, TTC7A / RFU, TMEM135 / Fold change vs veh, TMEM135 / RFU, DEPTOR / Fold change vs veh, DEPTOR / RFU, CPM / Fold change vs veh, CPM / RFU, DNAJB6 / Fold change vs veh, DNAJB6 / RFU, CACNA2D3 / Fold change vs veh, CACNA2D3 / RFU, DTX4 / Fold change vs veh, DTX4 / RFU, TFCP2 / Fold change vs veh, TFCP2 / RFU, GMCL1 /// GMCL1P1 / Fold change vs veh, GMCL1 /// GMCL1P1 / RFU, AEBP2 / Fold change vs veh, AEBP2 / RFU, SNHG1 /// SNORD22 /// SNORD25 /// SNORD26 /// SNORD27 /// SNORD28 /// SNORD29 /// SNORD31 / Fold change vs veh, SNHG1 /// SNORD22 /// SNORD25 /// SNORD26 /// SNORD27 /// SNORD28 /// SNORD29 /// SNORD31 / Fold change (Aza/veh), C12orf56 (ProbeSet 11735607_a_at) / Fold change (ACY-1035/veh), C12orf56 (ProbeSet 11735607_a_at) / Fold change (Aza/veh), FGFR1OP (ProbeSet 11751329_s_at) / Fold change (ACY-1035/veh), FGFR1OP (ProbeSet 11751329_s_at) / Fold change (Aza/veh), VPS36 (ProbeSet 11739960_a_at) / Fold change (ACY-1035/veh), VPS36 (ProbeSet 11739960_a_at) / RFU SYPL1 (11715823_x_at) / Fold change /veh SYPL1 (11715823_x_at) / RFU IGFBP7 (11715501_s_at) / Fold change /veh IGFBP7 (11715501_s_at) / RFU REEP3 (11722064_at) / Fold change /veh REEP3 (11722064_at) / RFU IGLL1 (11728026_x_at) / Fold change /veh IGLL1 (11728026_x_at): dose or concentration left out as unconfirmed
Settings: MV-4-11 cells, 48 hours

## Nc1ccc(-c2cccs2)cc1NC(=O)c1ccc2c(c1)cc(C1CC1)n2CCN1CCOCC1 [ACY-1035]
  Fold change /veh OASL (11726364_x_at): 1.03
